# Assay results: patent US4073908A, “8-Amino-theophylline derivatives and therapeutic applications thereof” (Laboratoire le Brun S.A., priority 1975, dated 1978)
# Experiments:
# [1] = system: antalgic activity in mice; test: Antalgic activity overall (writhing and hot-plate); type: in vivo
# Protocol: (§1) The following tests were carried out:
# (§2) a. writhing test in mice, by the oral route (on intraperitoneal administration of acetic acid),
# (§3) b. hot-plate test: licking reflex in mice on a plate heated at 65° C.
# [2] = system: licking reflex in mice; test: Antalgic: hot-plate test, licking reflex; type: in vivo; details: Mus musculus, plate heated at 65° C., read-out: AD50 in the hot-plate test (licking reflex)
# Protocol: as §1, §3
# [3] = system: motor activity in mice; test: Motor-stimulant or -depressant activity, light-beam activometer; type: in vivo; details: sub-cutaneous or oral routes
# Protocol: The motor-stimulant or -depressant activities were investigated in mice by the sub-cutaneous or oral routes by means of an activometric technique (light-beam activometer).
# The dosages which increase or decrease the number of cases over the 50% limit were determined with respect to concomitantly effected reference tests.
# [4] = system: aggressiveness subsequent to electric shocks in mice; test: Anti-aggressive: aggressiveness subsequent to electric shocks, mice; type: in vivo; details: Mus musculus, oral, read-out: Oral AD50, electric shock in mice
# Protocol: (§4) a. aggressiveness subsequent to electric shocks in mice and rats,
# (§5) In all cases, the AD50 values were determined by the oral route.
# [5] = system: rats; test: Oral subacute toxicity in rats; type: in vivo; details: 1 month old rats, up to a daily dosage of 100 mg/kg
# From the text: Oral subacute toxicity in rats was investigated by determination of the death rate (if any), of the change in the weight of some organs, and by hematologic examinations, and the like.
# Subacute toxicity in 1 month old rats, with compounds Nos. 11 and 18
# [6] = system: aggressiveness subsequent to apomorphine injection in rats; test: Anti-aggressive: aggressiveness subsequent to apomorphine injection, rats; type: in vivo; details: Rattus norvegicus, oral, apomorphine injection 1 mg/kg, read-out: Oral AD50, apomorphine, in rats
# Protocol: b. aggressiveness subsequent to apomorphine injection (1 mg/kg, in vivo) in rats,
# as §5
# [7] = system: psychotropic activity; test: Psychotropic activity, overall profile; details: in vivo
# From the text: The psychotropic and anti-inflammatory effects of the derivatives of this invention were investigated according to several methods described hereinafter.
# [8] = system: aggressiveness in mice-killing rats; test: Anti-aggressive: aggressiveness in mice-killing rats; type: in vivo; details: Rattus norvegicus, oral, read-out: Oral AD50, mice-killing rats
# Protocol: d. aggressiveness in mice-killing rats.
# as §5
# [9] = system: writhing in mice; test: Antalgic: writhing test in mice (intraperitoneal acetic acid); type: in vivo; details: Mus musculus, oral route, read-out: AD50 on administration of acetic acid
# Protocol: as §1, §2
# [10] = system: narcosis induced by ethanol in mice; test: Effect on narcosis induced by ethanol; type: in vivo
# From the text: d. Effect on narcosis induced by pentobarbital and ethanol in mice.
# [11] = system: group toxicity of amphetamine in mice; test: Antagonistic activity on the group toxicity of amphetamine in mice; type: in vivo; details: Mus musculus, read-out: AD50, antagonistic activity on the group toxicity of amphetamine
# [12] = system: aggressiveness subsequent to extended isolation in mice; test: Anti-aggressive: aggressiveness subsequent to extended isolation, mice; type: in vivo; details: Mus musculus, oral, read-out: Oral AD50, isolated mice
# Protocol: c. aggressiveness subsequent to extended isolation, in mice,
# as §5
# [13] = system: aggressiveness subsequent to electric shocks in rats; test: Anti-aggressive: aggressiveness subsequent to electric shocks, rats; type: in vivo; details: Rattus norvegicus, oral, read-out: Oral AD50, electric shock in rats
# Protocol: as §4, §5
# [14] = Acute toxicity in mice; type: in vivo; details: mouse, in vivo, single administration
# From the text: (§6) Acute toxicity in mice by the sub-cutaneous and oral routes and in rats by the oral route was investigated by determination of the death rate following a single administration of increasing dosages.
# (§7) Symbol > means that the LD50 is not attained at the dosage indicated.
# [15] = Acute toxicity in rats; type: in vivo; details: rat, in vivo, po, single administration
# From the text: as §6, §7
smiles,measurement,setting,value
"Cn1c(=O)c2c(nc3n2CCCN3CCN2CCN(c3cccc(Cl)c3)CC2)n(C)c1=O [Compound 18, 9-(2-4-(m-chlorophenyl)piperazin-1-yl!-ethyl)1,3-dimethyl-6,7,8,9-tetrahydropyrimidino(2,1-f)-purine-2,4-dione]",antalgic activity (in words),[1],more antalgic
same,ED50,[2],8.5 mg/kg
same,ED50,"[3]; Mus musculus, read-out: AD50, sedative action",7.5 mg/kg
same,sedative action (in words),[3],more sedative
same,ED50,[4],15 mg/kg
same,death rate (fatal issue),[5],No fatal issue was noted
same,ED50,[6],85 mg/kg
same,psychotropic activity (in words),[7],has the same characteristics
same,ED50,[8],22 mg/kg
same,ED50,[9],13 mg/kg
same,ethanol-induced narcosis-potentiating effect,[10],potentiates ethanol-induced narcosis
same,ED50,[11],20 mg/kg
same,ED50,[12],9 mg/kg
same,ED50,[13],45 mg/kg
same,LD50,"[14]; po, read-out: LD50, oral route, mice",> 300 mg/kg
same,LD50,"[14]; sc, read-out: LD50, s.c. route, mice",> 300 mg/kg
same,LD50,[15],> 100 mg/kg
